Test results as given in patent US20110251379A1, “COMPOUNDS USEFUL FOR TREATING NEURODEGENERATIVE DISORDERS” (Satori Pharmaceuticals, Inc., priority 2010, published 2011).

Tested on: amyloid-beta (1-42) peptide
Test: ELISA assay of amyloid-beta (1-42) in conditioned media of 2B7 cells
Assay type: cell-based
Settings: for IC50: 5 h, Aβ-42, 2B7 cells, 5 hours, read-out: IC50 range
Description: Compounds of the present invention, and extracts comprising said compounds, may be assayed as inhibitors of amyloid-beta (1-42) peptide in vitro or in vivo. Such assay methods are described in detail in U.S. Pat. No. 6,649,196, the entirety of which is hereby incorporated herein by reference.
In certain embodiments, provided compounds of the present invention, and extracts comprising said compounds, were assayed as inhibitors of amyloid-beta (1-42) peptide in vitro using an ELISA assay.
Capture Plate Prep: • 6E10 was diluted to 5.0 ug/mL in 100 mM NaHCO3 pH 8.2 (10 ug aliquot per 2 mL buffer); • 100 uL capture antibody solution was added to wells of 96 well plate; • Incubated overnight at 4° C. sealed; • Aspirated off capture antibody; and • Blocked with 250 uL of Blocking Buffer for 2-4 hours at rt sealed.
Conditioned Media: • Cultured 2B7 cells in 96 well plate with 250 uL of media per well until confluent; • Prepared serial dilution of compounds in DMSO at 100× the final desired concentration; • Washed wells with 2B7 cells lx with 250 uL of media; • Diluted DMSO stocks 1:100 into media and mix; and • Added 250 μL of media containing compounds (1% DMSO) to wells with 2B7 cells for 5 hours at 37° C.
Elisa Sample Prep: • Diluted conditioned media 1:2 into blocking buffer; • NOTE: If assaying for A-Beta 1-40 or total A-Beta, then diluted above sample 1:10 with a 50/50 mixture of non-conditioned media containing 1% DMSO and blocking buffer.
Standard Curve Sample Prep: • Diluted appropriate A-Beta peptide stock (stored in 1% NH4OH) to 200 μg/mL in blocking buffer; • Prepared a 1:2 serial dilution from the 200 μg/mL sample (150 μL into 150 μL blocking buffer); and • Added equal volume of standard curve samples to non-conditioned media with 1% DMSO.
Overnight Sample Incubation: • Aspirated blocking buffer from blocked plate; • Added 100 μL of samples to wells of plate (samples will be 50% media with 1% DMSO and 50% blocking buffer; and • Incubated overnight at 4° C. sealed.
Addition of Detection Antibody: • Aspirated off samples, wash 2× with 250 μL blocking buffer; and • Added 100 μL detection antibody labeled with HRP at 0.25 ug/mL in blocking buffer for 4 hours at room temperature sealed.
Final Wash and Readout: • Aspirated wells, wash 5× with 250 μL of PBS-T (2 minutes each wash at 30 RPM); • Added 100 μL TMB for 20 minutes; • Added 100 μL of 1M H3PO4; and • Read at 450 nm.
Coating Buffer (100 mM NaHCO3 pH 8.2)
PBS-T (PBS with 0.05% Tween-20)
Blocking Buffer (1% BSA in PBS-T)

| SMILES | IC50 [µM] | inhibition at 10 µM (Aβ-42, 10 umol/L, read-out: % Inhibition (range)) [%] | inhibition at 100 µM (Aβ-42, 100 umol/L, read-out: % Inhibition (range)) [%] |
| --- | --- | --- | --- |
| CC(=O)O[C@@H]([C@H]1C[C@@H](C)C2=C(O1)[C@H](O)[C@@]1(C)[C@@H]3CC[C@H]4C(C)(C)[C@@H](O[C@@H]5OC[C@@H](O)[C@H](O)[C@H]5O)CC[C@@]45C[C@@]35CC[C@]21C)C(C)(C)O | ≤ 1 | – | – |
| C[C@@H]1C[C@H]([C@H](O)C(C)(C)O)OC2=C1[C@@]1(C)CC[C@@]34C[C@@]35CC[C@H](O[C@@H]3OC[C@@H](O)[C@H](O)[C@H]3O)C(C)(C)[C@@H]5CC[C@H]4[C@]1(C)[C@H]2O | 1 to 10 | – | – |
| CC(=O)O[C@@H]([C@H]1C[C@@H](C)C2=C(O1)[C@H](O)[C@@]1(C)[C@@H]3CC[C@H]4C(C)(C)[C@@H](O)CC[C@@]45C[C@@]35CC[C@]21C)C(C)(C)O | < 10 | > 75 | – |
| CC(=O)O[C@@H]([C@H]1C[C@@H](C)C2C(O1)C(=O)[C@@]1(C)[C@@H]3CC[C@H]4C(C)(C)[C@@H](O)CC[C@@]45C[C@@]35CC[C@]21C)C(C)(C)O (some centres unmarked) | 1 to 10 | – | – |
| C[C@@H]1C[C@H]([C@H](O)C(C)(C)O)OC2C(=O)[C@@]3(C)[C@@H]4CC[C@H]5C(C)(C)[C@@H](O[C@@H]6OC[C@@H](O)[C@H](O)[C@H]6O)CC[C@@]56C[C@@]46CC[C@]3(C)C21 (some centres unmarked) | > 10 | – | – |
| C[C@@H]1C[C@H]([C@@H]2OCOC2(C)C)OC2C1[C@@]1(C)CC[C@@]34C[C@@]35CC[C@H](O[C@@H]3OC[C@@H](O)[C@H](O)[C@H]3O)C(C)(C)[C@@H]5CC[C@H]4[C@]1(C)[C@H]2O (some centres unmarked) | 1 to 10 | – | – |
| C[C@@H]1C[C@H]([C@@H]2OC(=O)OC2(C)C)OC2=C1[C@@]1(C)CC[C@@]34C[C@@]35CC[C@H](O[C@@H]3OC[C@@H](O)[C@H](O)[C@H]3O)C(C)(C)[C@@H]5CC[C@H]4[C@]1(C)[C@H]2O | 1 to 10 | – | – |
| C[C@@H]1C[C@H]([C@@H]2OC(=O)OC2(C)C)OC2C(O)[C@@]3(C)[C@@H]4CC[C@H]5C(C)(C)[C@@H](O[C@@H]6OC[C@@H](O)[C@H](O)[C@H]6O)CC[C@@]56C[C@@]46CC[C@]3(C)C21 (some centres unmarked) | 1 to 10 | – | – |
| CC(=O)OC(C)(C)[C@@H](O)[C@H]1C[C@@H](C)C2=C(O1)[C@H](O)[C@@]1(C)[C@@H]3CC[C@H]4C(C)(C)[C@@H](OC5OC[C@@H](O)[C@H](O)[C@H]5O)CC[C@@]45C[C@@]35CC[C@]21C (some centres unmarked) | 1 to 10 | – | – |
| CCC(=O)OC(C)(C)[C@H]1OC23O[C@@H]1C[C@@H](C)[C@@H]2[C@@]1(C)CC[C@@]24C[C@@]25CC[C@H](O[C@@H]2OC[C@@H](O)[C@H](O)[C@H]2O)C(C)(C)[C@@H]5CC[C@H]4[C@]1(C)[C@H]3O | 1 to 10 | – | – |
| CO[C@@H]([C@H]1C[C@@H](C)C2C(O1)[C@H](O)[C@@]1(C)[C@@H]3CC[C@H]4C(C)(C)[C@@H](O[C@@H]5OC[C@@H](O)[C@H](O)[C@H]5O)CC[C@@]45C[C@@]35CC[C@]21C)C(C)(C)O (some centres unmarked) | 1 to 10 | – | – |
| CCC(=O)O[C@@H]([C@H]1C[C@@H](C)C2C(O1)C(O)[C@@]1(C)[C@@H]3CC[C@H]4C(C)(C)[C@@H](O[C@@H]5OC[C@@H](O)[C@H](O)[C@H]5O)CC[C@@]45C[C@@]35CC[C@]21C)C(C)(C)O (some centres unmarked) | ≤ 1 | – | 25 to 75 |
| CC(=O)O[C@@H]([C@H]1C[C@@H](C)C2C(O1)C(N)[C@@]1(C)[C@@H]3CC[C@H]4C(C)(C)[C@@H](O[C@@H]5OC[C@@H](O)[C@H](O)[C@H]5O)CC[C@@]45C[C@@]35CC[C@]21C)C(C)(C)O (some centres unmarked) | 1 to 10 | – | – |
| CC(=O)OC(C)(C)[C@@H](O)[C@H]1C[C@@H](C)C2C(O1)[C@H](O)[C@@]1(C)[C@@H]3CC[C@H]4C(C)(C)[C@@H](O[C@@H]5OC[C@@H](O)[C@H](O)[C@H]5O)CC[C@@]45C[C@@]35CC[C@]21C (some centres unmarked) | 1 to 10 | – | – |
| COCO[C@@H]([C@H]1C[C@@H](C)C2=C(O1)[C@H](O)[C@@]1(C)[C@@H]3CC[C@H]4C(C)(C)[C@@H](O[C@@H]5OC[C@@H](O)[C@H](O)[C@H]5O)CC[C@@]45C[C@@]35CC[C@]21C)C(C)(C)O | 1 to 10 | – | – |
| C[C@@H]1C[C@H]([C@H](O)C(C)(C)OC(=O)O)OC2C1[C@@]1(C)CC[C@@]34C[C@@]35CC[C@H](O[C@@H]3OC[C@@H](O)[C@H](O)[C@H]3O)C(C)(C)[C@@H]5CC[C@H]4[C@]1(C)[C@H]2O (some centres unmarked) | 1 to 10 | – | – |
| C[C@@H]1C[C@H](C(=O)C(C)(C)O)OC2C1[C@@]1(C)CC[C@@]34C[C@@]35CC[C@H](O[C@@H]3OC[C@@H](O)[C@H](O)[C@H]3O)C(C)(C)[C@@H]5CC[C@H]4[C@]1(C)[C@H]2O (some centres unmarked) | > 10 | – | – |

| SMILES | IC50 [µM] | inhibition at 10 µM (Aβ-42, 10 umol/L, read-out: % Inhibition (range)) [%] | inhibition at 100 µM (Aβ-42, 100 umol/L, read-out: % Inhibition (range)) [%] |
| --- | --- | --- | --- |
| C[C@@H]1C[C@H]([C@H](OC(N)=O)C(C)(C)O)OC2C1[C@@]1(C)CC[C@@]34C[C@@]35CC[C@H](O[C@@H]3OC[C@@H](O)[C@H](O)[C@H]3O)C(C)(C)[C@@H]5CC[C@H]4[C@]1(C)[C@H]2O (some centres unmarked) | 1 to 10 | – | – |
| COCO[C@H]1[C@H](O)COC(O[C@H]2CC[C@]34C[C@]35CC[C@]3(C)C6C(O[C@@H]([C@@H]7OC(=O)OC7(C)C)C[C@H]6C)[C@H](O)[C@@]3(C)[C@@H]5CC[C@H]4C2(C)C)[C@@H]1O (some centres unmarked) | 1 to 10 | – | – |
| CC(=O)O[C@H]1CC[C@]23C[C@]24CC[C@]2(C)C5[C@H](C)C[C@H]([C@H](OC(C)=O)C(C)(C)O)O[C@@H]5[C@H](O)[C@@]2(C)[C@@H]4CC[C@H]3C1(C)C (some centres unmarked) | ≤ 1 | – | – |
| CC(=O)O[C@@H]([C@H]1C[C@@H](C)C2C(O1)[C@H](O)[C@@]1(C)[C@@H]3CC[C@H]4C(C)(C)[C@@H](OC(CO)OCCO)CC[C@@]45C[C@@]35CC[C@]21C)C(C)(C)O (some centres unmarked) | ≤ 1 | – | – |
| CC(=O)O[C@@H]([C@H]1C[C@@H](C)C2C(O1)[C@H](O)[C@@]1(C)[C@@H]3CC[C@H]4C(C)(C)[C@@H](OC(=O)CCC(=O)O)CC[C@@]45C[C@@]35CC[C@]21C)C(C)(C)O (some centres unmarked) | 1 to 10 | – | – |
| CC(=O)O[C@@H]([C@H]1C[C@@H](C)C2=C(O1)[C@H](O)[C@@]1(C)[C@@H]3CC[C@H]4C(C)(C)[C@@H](O[C@H]5CN(O)CCO5)CC[C@@]45C[C@@]35CC[C@]21C)C(C)(C)O | ≤ 1 | – | – |
| CC(=O)O[C@@H]([C@H]1C[C@@H](C)C2C(O1)[C@H](O)[C@@]1(C)[C@@H]3CC[C@H]4C(C)(C)[C@@H](O[C@H]5CN(O)CCO5)CC[C@@]45C[C@@]35CC[C@]21C)C(C)(C)O (some centres unmarked) | ≤ 1 | – | – |
| CC(=O)O[C@@H]([C@H]1C[C@@H](C)C2C(O1)[C@H](O)[C@@]1(C)[C@@H]3CC[C@H]4C(C)(C)[C@@H](OCC(=O)O)CC[C@@]45C[C@@]35CC[C@]21C)C(C)(C)O (some centres unmarked) | 1 to 10 | – | – |
| CC(=O)O[C@@H]([C@H]1C[C@@H](C)C2C(O1)[C@H](O)[C@@]1(C)[C@@H]3CC[C@H]4C(C)(C)[C@@H](O[C@H]5CN(C)CCO5)CC[C@@]45C[C@@]35CC[C@]21C)C(C)(C)O (some centres unmarked) | ≤ 1 | – | – |
| CN[C@H]1CC[C@]23C[C@]24CC[C@]2(C)C5C(O[C@@H]([C@H](OC(C)=O)C(C)(C)O)C[C@H]5C)[C@H](O)[C@@]2(C)[C@@H]4CC[C@H]3C1(C)C (some centres unmarked) | 1 to 10 | – | – |
| CC(=O)O[C@@H]([C@H]1C[C@@H](C)C2C(O1)[C@H](O)[C@@]1(C)[C@@H]3CC[C@H]4C(C)(C)[C@@H](O[C@H]5CNCCO5)CC[C@@]45C[C@@]35CC[C@]21C)C(C)(C)O (some centres unmarked) | ≤ 1 | – | – |
| CC(=O)O[C@@H]([C@H]1C[C@@H](C)C2C(O1)[C@H](O)[C@@]1(C)[C@@H]3CC[C@H]4C(C)(C)[C@H](NO)CC[C@@]45C[C@@]35CC[C@]21C)C(C)(C)O (some centres unmarked) | 1 to 10 | – | – |
| COCCN[C@H]1CC[C@]23C[C@]24CC[C@]2(C)C5C(O[C@@H]([C@H](OC(C)=O)C(C)(C)O)C[C@H]5C)[C@H](O)[C@@]2(C)[C@@H]4CC[C@H]3C1(C)C (some centres unmarked) | 1 to 10 | – | – |
| COCCN1CCOC(O[C@H]2CC[C@]34C[C@]35CC[C@]3(C)C6C(O[C@@H]([C@H](OC(C)=O)C(C)(C)O)C[C@H]6C)[C@H](O)[C@@]3(C)[C@@H]5CC[C@H]4C2(C)C)C1 (some centres unmarked) | ≤ 1 | – | – |
| CC(=O)O[C@@H]([C@H]1C[C@@H](C)C2C(O1)[C@H](O)[C@@]1(C)[C@@H]3CC[C@H]4C(C)(C)[C@@H](OC5CN(C6CCCC6)CCO5)CC[C@@]45C[C@@]35CC[C@]21C)C(C)(C)O (some centres unmarked) | ≤ 1 | – | – |
| CC(=O)O[C@@H]([C@H]1C[C@@H](C)C2C(O1)[C@H](O)[C@@]1(C)[C@@H]3CC[C@H]4C(C)(C)[C@@H](OC5CN(CCN6CCOCC6)CCO5)CC[C@@]45C[C@@]35CC[C@]21C)C(C)(C)O (some centres unmarked) | ≤ 1 | – | – |
